What was measured:
BCM2665 xenografts = assay: short-term in vivo siRNA (multistage particle) treatment, BCM2665 patient-derived xenograft; parameters: species or system SCID-Beige mice; settings: for tumor volume: BCM2665; for secondary MSFE: BCM2665 xenograft cells, tumors collected after two weeks; for Aldefluor levels: BCM2665 xenografts, reduction not statistically significant
Method: FIG. 10A, FIG. 10B, FIG. 10C, and FIG. 10D illustrate the short-term, in vivo treatment of siRNA in triple-negative, patient-derived human cancer in a murine model xenograft, BCM2665. BCM2665 cells were transplanted into cleared mammary fat pad of SCID beige mice (n=9). These tumors were randomized into the same six groups as stated in the preceding figure, and treated in a manner identical to the SUM159 xenografts. […] RPL39 and MLF2 siRNA respectively. […] Data were analyzed by one-way ANOVA, and are plotted as mean±SEM for n=9 replicates; *p<0.05;
The effect of MLF2 and RPL39 using siRNA packaged in multistage nanoparticles in two different triple negative models were studied. SUM159 and a patient-derived human cancer xenograft (BCM2665) from a primary human breast cancer transplanted in SCID-Beige mice, the test group had 54 mice per xenograft line, and 9 mice per treatment arm. When tumor sizes reached 150 to 300 mm^3, mice were divided into six groups: (1) vehicle-treated, (2) chemotherapy on day 0 with one dose of docetaxel 20 mg/kg by intraperitoneal (i.p.) injection. (3) siRNA against MLF2 packaged in nanoparticles (single injection intravenous (i.v.) on Day 1), (4) combination treatment with docetaxel (20 mg/kg i.p. on Day 1) and siRNA against MLF2 (single injection i.v. on Day 1), (5) siRNA against RPL39 packaged in nanoparticles (single injection i.v. on Day 1), and (6) combination treatment with docetaxel (20 mg/kg i.p. on Day 1) and siRNA against inhibitor […] (single injection iv. on Day 1). The same dose (15 μg siRNA) was used in all experiments. Animals were sacrificed on Day 14. The tumors were harvested and analyzed for downstream effects on BCSC self-renewal using FACS analysis, and MSFE.
The fraction of BCSCs in the xenograft tumors from the six treatment groups were processed by mincing and digesting the tumors using collagenase type III, for 3 hrs at 37° C. in order to dissociate the tumors into single cells. Changes in CD44+/CD24/Lin− and Aldefluor® were analyzed as described previously (Li et al., 2008). Briefly, cells were stained with primary antibodies antiCD44 labeled APC (dilution 1:10. BD Biosciences), anti-CD24-labeled FITC (dilution 1:10, BD Biosciences), and additionally with H2KD-labeled PE to eliminate all mouse, lineage-positive cells. The cells were incubated in HBSS (Hanks Balanced Salt Solution, GIBCO) for 15 min on ice with 2% FBS for the antibodies and 45 min for Aldefluor® reagent. Following incubation, cells were washed once with HBSS and re-suspended in HBSS supplemented with 2% FBS. […] (PI) was added to the cells for live/dead gating prior to FACS analysis.
Mammosphere formation efficiency, the in vitro assay for stem cell self-renewal, was performed as described previously (Dontu et al., 2003; Dontu et al., 2005; Li et al., 2008). Single cells were plated in ultra-low attachment plates (Corning, Acton, Mass., USA) at the density 40,000 viable cells/mL for BCM2665 in primary culture, and at the density 10,000 viable cells/mL in secondary culture. For mammosphere culture, cells were grown in serum-free mammary epithelial basal medium (MEGM) (Lonza, Inc.) supplemented with B27 (Invitrogen), 20 ng/mL EGF (BD Biosciences), and 1% heparin (Sigma Chemical Co.) in a humidified incubator ([…]: 95% air, 37° C. for 14 days, as previously described (Li et al., 2008).

eNOS = assay: Western blot of nitric oxide synthases after siRNA knockdown; assay type: cell-based, human; settings: three triple-negative cell lines treated in vitro with siRNA
Method: (§1) In order to confirm the pathways involved in BCSC targeting, western blot analysis was conducted with siRNA knockdown and overexpression of RPL39 and MLF2 in three breast cancer cell lines (SUM159, BT549 and MDAMB231). Briefly, 30 μg of whole cell extracts were quantified and run on a 4-20% gel for 1 hr, and transferred onto nitrocellulose membranes. The primary antibodies were incubated overnight at the following dilutions eNOS (1:500), nNOS (1:500), and iNOS (1:1000) (Millipore, Bellerica, Mass., USA) followed by one-hour secondary antibody incubation, and development using chemiluminescence.

nNOS = assay: as above; assay type: cell-based, human; settings: three triple-negative cell lines treated in vitro with siRNA
Method: as §1

iNOS = assay: as above; assay type: cell-based, human; settings: three triple-negative cell lines (SUM159, BT549, MDAMB231) treated in vitro with siRNA
Method: as §1

SUM159 tumor = assay: MDS/siRNA by tail vein in SUM159 tumor mice, MSFE of isolated cells; assay type: in vivo, SCID/Beige mice; settings: MDS/siRNA by tail vein injection, cells isolated 3 weeks later
Method: To develop siRNA nanotherapeutics targeting TIC, studies have been conducted to confirm the essential roles of the candidate TIC genes. Exemplary siRNA oligonucleotides specific for STAT3, MFL2, and RPL39L were formulated into nanoliposomes, which were then loaded into porous silicon MSV particles. For in vitro assay, BT549 and SUM159 cells were incubated with MSV/siRNA, and primary and secondary MSFE was measured. […] For in vivo assessment, SCID/Beige mice were inoculated with SUM159 tumor, and treated with MDS/siRNA delivered by tail vein injection. Cells were then isolated from tumor mice 3 weeks later, and MSFE was measured. […] These studies indicate that 1) MDS/siRNA could successfully be delivered to tumor tissues effectively in vivo, 2) uptake of MDS/siRNA by TIC was efficient, and 3) MFL2 and RPL39L were essential genes for TIC.

[1] = siRNA alone (15 μg i.v., MSV) vs vehicle
[2] = siRNA+chemotherapy vs standard-dose docetaxel (20 mg/kg)

Row | Substance | tumor volume (BCM2665 xenografts; [1]) | tumor volume (BCM2665 xenografts; [2]) | secondary MSFE (BCM2665 xenografts) | Aldefluor levels (BCM2665 xenografts) | eNOS (eNOS) | nNOS (nNOS) | iNOS signaling (iNOS) | MSFE of cells isolated from tumor mice (SUM159 tumor)
1 | MLF2 siRNA: siRNA against myeloid leukemia factor 2; sense SEQ ID NO: 3 CCCTGATGGATCCCTTTGCTAT, antisense SEQ ID NO: 19 ATAGCAAAGGGATCCATCAGGA (packaged in nanoliposomes, chemistry not given here, further chemistry not given here) | Significant reduction | Similarly, observations were obtained | Significant decrease | reduction | decrease | no changes | clear reduction | Dramatic reduction
2 | RPL39 siRNA: siRNA against ribosomal protein L39-like; sense SEQ ID NO: 15 ACGATTCCTGGCCAAGAAACAA, antisense SEQ ID NO: 31 TTGTTTCTTGGCCAGGAATCGC (listed as DNA, chemistry not fully specified) | Significant reduction | Similarly, observations were obtained | Significant decrease | reduction | decrease | no changes | clear reduction | Dramatic reduction

Source: patent US9546367B2, “siRNA compositions and methods for inhibiting gene expression in tumor initiating cells of breast cancer” (priority 2011, dated 2017)
